The results in this text go back to patent US11986532B2 (Arvinas Operations, Inc., priority 2021, dated 2024).

Molecules are shown by their SMILES. Bounds are passed on as bounds.

In the experiment the target is T1, BCL6 (Homo sapiens, UniProt P41182).
T1 construct: endogenous in cells; host or cells: T47D breast cancer epithelial cells
Description: Immunofluorescence protocol for high content imaging of BCL6 (degradation) in T47D cells, 3 days compound treatment. The format is cell-based. The note with it: T47D cells, 3 days compound treatment; for DC50: read-out: Mean DC50 (nM)* category; for Dmax: read-out: Mean Dmax (%)** category. The procedure: Immunofluorescence Protocol for High Content Imaging of BCL6
T47D cells were seeded in 100 μl volume of RPMI1640-10% FBS in a 96-well black/clear bottom plates for adherent lines (Corning #3904).
Day 1. T47D breast cancer epithelial cells were seeded at a density so that confluence is ˜70-90% at endpoint. Cells were seeded at 7K/0.1 ml/well the morning prior to the addition of exemplary bifunctional degradation compounds.
Day 2. Prepare an 11 point 3-fold serial dilution of exemplary bifunctional compound in DMSO and aliquot an appropriate volume to cell growth media to generate a 2× final concentration of exemplary bifunctional compound. Add an equal volume (0.1 ml) of 2× exemplary bifunctional compound/media mix to previously plated cells, for a final top concentration in aqueous cell growth media of 0.1 or 1 μM. Incubate for 3 days at 37° C., 5% CO2.
Day 5 Immunofluorescence. Discard cell media. Wash wells with 200 μl of room temperature phosphate-buffered saline (PBS). Prepared 4% paraformaldehyde (PFA) from 16% PFA (Electron Microscopy Sciences #15710) using 1×PBS. Fifty μl of 4% PF was added to each well and incubate for 15 minutes at room temperature to fix the cells. The PFA was aspirated and the cells washed twice with PBS (200 μl)).
Prepared 0.1% Triton X-100 in PBS using 10% triton X-100 stock. The cells were permeabilized by adding 100 ul of the 0.1% Triton X-100 in PBS to each well to permeabilize cells and incubating at room temperature for 15 minutes. Cells were washed twice with PBS.
Prepared 3% BSA/PBS (from Thermofisher #37515 Blocker BSA in TBS, 10%), and 100 ul was added to each well. The cells were incubated for at least 1 hour at room temperature.
Prepared 1% BSA/PBS using Blocker BSA/PBS, and the 3% BSA/PBS removed from the wells.
For no primary antibody controls, 50 μl 1% BSA/PBS was added.
Primary antibody (BCL6 Rb Ab, CST-14895, Cell Signaling) was diluted 1:300 in 1% BSA/PBS using Blocker BSA/PBS.
Fifty μl of primary antibody added to all remaining wells (i.e., all wells other than the primary antibody controls) and the cells were incubated overnight at 4° C. with slow orbital movement.
Day 6. Contents of the wells was removed and the cells washed four times with 200 ul PBS. 1% BSA/PBS was prepared using Blocker BSA in PBS.
Diluted secondary antibody goat anti-Rb IgG Alexa-488 1:1000, and cell mask-Alexa-647 1:3000 in 1% BSA/PBS in the same mix. Add 50 μl to each well and incubate at room temperature for 1 hour in the dark.
Cells were washed three times with 200 ul PBS, and then incubated for 10 minutes with 100 ul Hoechst dye at 1 μg/mL (20 mM stock) to stain cell nuclei. Wells were then washed with 200 μl PBS, and 100 ul of PBS was added to each well and the plate covered plate with a plastic opaque cover. Plates were stored at 4° C. and covered in aluminum foil until imaged.
Plates were equilibrated to room temperature prior to reading. The bottom of the plate was wiped with 70% isopropanol immediately prior to imaging.
10×, 4 fields/well, include Top hat smoothing in the analysis protocol.
16% paraformaldehyde: Electron Microscopy Sciences #15710
Hoechst: Thermofisher #62249
Blocker BSA in PBS, 10%: Thermofisher #37515
Blocker BSA in TBS, 10%: Thermofisher #37520
Goat anti-rabbit or mouse AlexaFluor-488: Thermofisher #A11008
Cell mask deep red AlexaFluor-647: Thermofisher #C10046
Wash buffer, PBS: 20×PBS, Thermofisher

As usually defined, the DC50 is the midpoint of the concentration-degradation curve. Broadly, the Dmax is the largest share of the target that was removed. On to `CNC(=O)COc1cc2cc(Nc3nc(N4CCC5(CC4)CC(C(=O)N4CCC(c6cccc7c6CN(C6CCC(=O)NC6=O)C7=O)CC4)C5)ncc3Cl)ccc2n(C(C)C)c1=O` (centres unmarked) [Compound 19, 2-[(6-{[5-chloro-2-(2-{4-[2-(2,6-dioxopiperidin-3-yl)-1-oxo-2,3-dihydro-1H-isoindol-4-yl]piperidine-1-carbonyl}-7-azaspiro [3.5]nonan-7-yl)pyrimidin-4-yl]amino}-2-oxo-1-(propan-2-yl)-1,2-dihydroquinolin-3-yl)oxy]-N-methylacetamide], for which the DC50 is below 10 nM and the greatest degradation seen (Dmax) was in the range of 50 to 70%.

In the case of `CNC(=O)COc1cc2cc(Nc3nc(N4CCN(CC5CCN(c6ccc7c(c6OC)CN(C6CCC(=O)NC6=O)C7=O)CC5)CC4)ncc3Cl)ccc2n(C(C)C)c1=O` (centres unmarked) [Compound 20, 2-{[6-({5-chloro-2-[4-({1-[2-(2,6-dioxopiperidin-3-yl)-4-methoxy-1-oxo-2,3-dihydro-1H-isoindol-5-yl]piperidin-4-yl}methyl)piperazin-1-yl]pyrimidin-4-yl}amino)-2-oxo-1-(propan-2-yl)-1,2-dihydroquinolin-3-yl]oxy}-N-methylacetamide], the DC50 was at least 100 nM and the Dmax was at least 70%.

As to `CNC(=O)COc1cc2cc(Nc3nc(N4CCN(CC5CCN(c6cc7c(cc6OC)C(=O)N(C6CCC(=O)NC6=O)C7)CC5)CC4)ncc3Cl)ccc2n(C(C)C)c1=O` (centres unmarked) [Compound 21, 2-{[6-({5-chloro-2-[4-({1-[2-(2,6-dioxopiperidin-3-yl)-6-methoxy-1-oxo-2,3-dihydro-1H-isoindol-5-yl]piperidin-4-yl}methyl)piperazin-1-yl]pyrimidin-4-yl}amino)-2-oxo-1-(propan-2-yl)-1,2-dihydroquinolin-3-yl]oxy}-N-methylacetamide], the DC50 was below 10 nM and the Dmax is below 50%.

As for `CNC(=O)COc1cc2cc(Nc3nc(N4CCC5(CC4)CN(C(=O)C4CCN(c6cccc7c6CN(C6CCC(=O)NC6=O)C7=O)CC4)C5)ncc3Cl)ccc2n(C(C)C)c1=O` (centres unmarked) [Compound 22, 2-[(6-{[5-chloro-2-(2-{1-[2-(2,6-dioxopiperidin-3-yl)-1-oxo-2,3-dihydro-1H-isoindol-4-yl]piperidine-4-carbonyl}-2,7-diazaspiro[3.5]nonan-7-yl)pyrimidin-4-yl]amino}-2-oxo-1-(propan-2-yl)-1,2-dihydroquinolin-3-yl)oxy]-N-methylacetamide], the DC50 was below 10 nM and the maximal degradation (Dmax) was 50 to 70%.

`CNC(=O)COc1cc2cc(Nc3nc(N4CCN(C[C@H]5C[C@@H](N6CCC(c7cccc8c7C(=O)N(C7CCC(=O)NC7=O)C8=O)CC6)C5)CC4)ncc3Cl)ccc2n(C(C)C)c1=O` (some centres unmarked) [Compound 23, 2-[(6-{[5-chloro-2-(4-{[(1s,3s)-3-{4-[2-(2,6-dioxopiperidin-3-yl)-1,3-dioxo-2,3-dihydro-1H-isoindol-4-yl]piperidin-1-yl}cyclobutyl]methyl}piperazin-1-yl)pyrimidin-4-yl]amino}-2-oxo-1-(propan-2-yl)-1,2-dihydroquinolin-3-yl)oxy]-N-methylacetamide]: the DC50 was in the range of 50 to 100 nM and the greatest degradation seen (Dmax) was below 50%.

Take `CNC(=O)COc1cc2cc(Nc3nc(N4CCN(C[C@H]5C[C@H](N6CCC(c7cccc8c7C(=O)N(C7CCC(=O)NC7=O)C8=O)CC6)C5)CC4)ncc3Cl)ccc2n(C(C)C)c1=O` (some centres unmarked) [Compound 24, 2-[(6-{[5-chloro-2-(4-{[(1r,3r)-3-{4-[2-(2,6-dioxopiperidin-3-yl)-1,3-dioxo-2,3-dihydro-1H-isoindol-4-yl]piperidin-1-yl}cyclobutyl]methyl}piperazin-1-yl)pyrimidin-4-yl]amino}-2-oxo-1-(propan-2-yl)-1,2-dihydroquinolin-3-yl)oxy]-N-methylacetamide]: the DC50 is 50 to 100 nM and the Dmax was below 50%.

Consider `CNC(=O)COc1cc2cc(Nc3nc(N4CCN(CC5CCN(c6ccc7c(c6F)CN(C6CCC(=O)NC6=O)C7=O)CC5)CC4)ncc3Cl)ccc2n(C(C)C)c1=O` (centres unmarked) [Compound 25, 2-{[6-({5-chloro-2-[4-({1-[2-(2,6-dioxopiperidin-3-yl)-4-fluoro-1-oxo-2,3-dihydro-1H-isoindol-5-yl]piperidin-4-yl}methyl)piperazin-1-yl]pyrimidin-4-yl}amino)-2-oxo-1-(propan-2-yl)-1,2-dihydroquinolin-3-yl]oxy}-N-methylacetamide], for which the DC50 is below 10 nM and the Dmax is below 50%.

For the compound `CNC(=O)COc1cc2cc(Nc3nc(N4CCN(CC5CCN(c6cc7c(c(OC)c6)C(=O)N(C6CCC(=O)NC6=O)C7)CC5)CC4)ncc3Cl)ccc2n(C(C)C)c1=O` (centres unmarked) [Compound 26], the DC50 is below 10 nM and the greatest degradation seen (Dmax) was in the range of 50 to 70%.

Turning to `CNC(=O)COc1cc2cc(Nc3nc(N4CCC5(CC4)CC(C(=O)N4CCN(c6cccc7c6CN(C6CCC(=O)NC6=O)C7=O)CC4)C5)ncc3Cl)ccc2n(C(C)C)c1=O` (centres unmarked) [Compound 27, 2-[(6-{[5-chloro-2-(2-{4-[2-(2,6-dioxopiperidin-3-yl)-1-oxo-2,3-dihydro-1H-isoindol-4-yl]piperazine-1-carbonyl}-7-azaspiro [3.5]nonan-7-yl)pyrimidin-4-yl]amino}-2-oxo-1-(propan-2-yl)-1,2-dihydroquinolin-3-yl)oxy]-N-methylacetamide], the DC50 is below 10 nM and the Dmax was 50 to 70%.

For `CNC(=O)COc1cc2cc(Nc3nc(N4CCC(OC5CCN(c6ccc7c(c6)CN(C6CCC(=O)NC6=O)C7=O)CC5)CC4)ncc3Cl)ccc2n(C(C)C)c1=O` (centres unmarked) [Compound 28, 2-{[6-({5-chloro-2-[4-({1-[2-(2,6-dioxopiperidin-3-yl)-1-oxo-2,3-dihydro-1H-isoindol-5-yl]piperidin-4-yl}oxy)piperidin-1-yl]pyrimidin-4-yl}amino)-2-oxo-1-(propan-2-yl)-1,2-dihydroquinolin-3-yl]oxy}-N-methylacetamide], the 50% degradation concentration (DC50) is below 10 nM and the Dmax was 50 to 70%.

Regarding `CNC(=O)COc1cc2cc(Nc3nc(N4CCCCC4)ncc3Cl)ccc2n(CCOc2ccc3c(c2)C(=O)N(C2CCC(=O)NC2=O)C3=O)c1=O` (centres unmarked) [Compound 29, 2-[(6-{[5-chloro-2-(piperidin-1-yl)pyrimidin-4-yl]amino}-1-(2-{[2-(2,6-dioxopiperidin-3-yl)-1,3-dioxo-2,3-dihydro-1H-isoindol-5-yl]oxy}ethyl)-2-oxo-1,2-dihydroquinolin-3-yl)oxy]-N-methylacetamide], the DC50 is 10 to 50 nM and the Dmax lay in the range of 50 to 70%.

On to `CNC(=O)COc1cc2cc(Nc3nc(N4CCC(O[C@H]5CC[C@H](Oc6ccc7c(c6)C(=O)N(C6CCC(=O)NC6=O)C7=O)CC5)CC4)ncc3Cl)ccc2n(C(C)C)c1=O` (some centres unmarked) [Compound 30, 2-[(6-{[5-chloro-2-(4-{[(1r,4r)-4-{[2-(2,6-dioxopiperidin-3-yl)-1,3-dioxo-2,3-dihydro-1H-isoindol-5-yl]oxy}cyclohexyl]oxy}piperidin-1-yl)pyrimidin-4-yl]amino}-2-oxo-1-(propan-2-yl)-1,2-dihydroquinolin-3-yl)oxy]-N-methylacetamide], for which the DC50 lay in the range of 10 to 50 nM and the Dmax was 50 to 70%.

As for `CNC(=O)COc1cc2cc(Nc3nc(N4CCC(O[C@H]5CC[C@H](Oc6cccc7c6C(=O)N(C6CCC(=O)NC6=O)C7=O)CC5)CC4)ncc3Cl)ccc2n(C(C)C)c1=O` (some centres unmarked) [Compound 31, 2-[(6-{[5-chloro-2-(4-{[(1r,4r)-4-{[2-(2,6-dioxopiperidin-3-yl)-1,3-dioxo-2,3-dihydro-1H-isoindol-4-yl]oxy}cyclohexyl]oxy}piperidin-1-yl)pyrimidin-4-yl]amino}-2-oxo-1-(propan-2-yl)-1,2-dihydroquinolin-3-yl)oxy]-N-methylacetamide], the DC50 was below 10 nM and the Dmax is 50 to 70%.
